The values that follow are results of earlier work, collected in patent US9102697B2, “Trioxacarcins and uses thereof” (President and Fellows of Harvard College, priority 2010, dated 2015).

The subject of one data set is murine models. As to conditions: cited from earlier work.
For another data set, the system named is gram-positive. To be noted: cited from earlier work.
In another data set the test system is SF-268. As to conditions: CNS cancer cell line SF-268; cited from earlier work.
For a further data set, the system named is LXFL 529L. To be noted: lung cancer cell line LXFL 529L; cited from earlier work.
A further data set deals with MCF-7. As to conditions: mammary cancer cell line MCF-7; cited from earlier work.
The subject of a further data set is H-460. As to conditions: lung cancer cell line H-460; cited from earlier work.
Data set [1] concerns self-complementary DNA 12-mer d(AATTACGTAATT) (SEQ ID NO: 1). To be noted: epoxide opening by N7 of the central guanine residue; cited from earlier work.

Consider `COc1c2c(c(O)c3c4c(c(C)cc13)C1OC3(C(OC)OC)OC1C(O[C@H]1C[C@@H](O)[C@@](O)(C(C)=O)[C@H](C)O1)(O4)C3(O)CO)C(=O)C(O)CC2O[C@H]1C[C@@](C)(O)[C@H](OC(C)=O)[C@H](C)O1` (some centres unmarked) [Trioxacarcin B], for which the anti-tumor activity entry in the data set on murine models is given as “anti-tumor activity”. For the same compound, the antibiotic activity result with gram-positive was “gram-positive antibiotic activity”.
For `COc1c2c(c(O)c3c4c(c(C)cc13)C1OC3(C(OC)OC)OC1C(OC1CC(O)C(O)(C(C)O)C(C)O1)(O4)C31CO1)C(=O)C(O)CC2OC1COC(C)(OC(C)=O)C(C)(O)C1` (centres unmarked) [Trioxacarcin C], the anti-tumor activity entry in the data set with murine models is reported as “anti-tumor activity”. Also, the antibiotic activity entry in the data set on gram-positive is listed as “gram-positive antibiotic activity”.
Turning to Trioxacarcin A, the IC70 entry in the data set on SF-268, in the data set on LXFL 529L, in the data set on MCF-7 and in the data set on H-460 was “subnanmolar” throughout. Further, the anti-tumor activity entry in the data set on murine models was “anti-tumor activity”. In addition, the antibiotic activity result in the data set with gram-positive is “gram-positive antibiotic activity”. For the same compound, in data set [1], the “reaction with the oligonucleotide” value is reported as “form a covalent complex”.
